What was measured:
[1] = tested on: Mexican bean beetle; assay: topical application to Mexican bean beetle, fourth larval stage, maturation inhibition; type: in vivo
How it was run: (§1)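 Compounds applied topically, 1 μL acetone solution at 10%, 1% or 0.5%, to ten specimens per insect per concentration, alongside acetone and untreated controls; scored after about 8–10 days. Juvenile/adult characteristics rated 0–3 (Tenebrio 0–4), ≥2 meaning unable to reproduce; unreported specimens died during metamorphosis.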

[2] = tested on: Housefly (Musca domestica); assay: housefly rearing diet test, percent adult emergence; type: in vivo
Protocol: Test compounds were mixed with the rearing diet of houseflys at various levels. The prepared diet was then placed in an 8 oz. drinking cup. Three cups were prepared for each treatment level and three control cups. Housefly eggs (Musca domestica) were placed in each cup and they were maintained at 28°C. for 1 week. Fifty pupae were then removed from each cup and placed in a petri dish. After the control pupae had emerged into adults, the percent emergence in each dish was recorded. The test compounds used were 7,8-epoxy-4-ethyl-8-methyl-1-(3,4-methylenedioxyphenyl)-3-decene, 4,8-dimetyl-1-(3,4-methylenedioxyphenyl)-2,6-nonadiene and 2,6-dichloro-2,6-dimethyl-9-(3,4-methylenedioxyphenyl)nonane.

[3] = tested on: milkweed bug; assay: topical application to milkweed bug, fourth nymphal stage, maturation inhibition; type: in vivo; conditions: rating scale 0-3
How it was run: as §1

[4] = tested on: Tenebrio molitor pupae; assay: topical application to Tenebrio molitor pupae, maturation inhibition; type: in vivo
How it was run: as §1

[5] = tested on: housefly larvae; assay: topical application to housefly larvae; type: in vivo, Musca domestica
Protocol: (§2) The compounds were applied in acetone solution at concentrations of 10 percent, 1 percent and 0.5 percent. One microliter of the acetone solution was applied to each test specimen. Ten test specimens were employed for each insect at each concentration and compared to ten acetone controls and ten zero controls. Approximately eight to ten days were required before results could be ascertained.
A number of compounds were tested against housefly larvae by topical application in an acetone solution using the method described above for the primary test against Tenebrio, milkweed bug, wax moth, and Mexican bean bettel. The results with the first compound are reported on a scale of 0 to 3 with 0 indicating a normal adult, 1 indicating an adult with deformed wings, 2 indicating a partially emerged adult, and 3 indicating no evidence of emergence. The results for the other compounds are reported onn a scale of 0 to 2 with 0 indicating a normal adult, 1 indicating a partially emerged adult and 2 indicating no evidence of emergence.

[6] = tested on: wax moth; assay: topical application to wax moth, fifth larval stage, maturation inhibition; type: in vivo
Excerpt: as §2
The insect species used in the test were Tenebrio molitor pupae; milkweed bug, fourth nymphal stage; wax moth, fifth larval stage; and Mexican bean beetle, fourth larval stage. At the completion of the test, each specimen was examined for the degree of juvenile and adult characteristics. The milkweed bug, wax moth, and Mexican bean beetle were assigned a numerical rating of 0 to 3 with 0 indicating no effect and 3 indicating the maximum effect or least adult development. Because of differences in morphology the Tenebrio rating scale was 0 to 4. In all cases a rating of 2 or higher means that the insect is incapable of reproduction. The number of specimens in each rating classification are given. In any test were the total of specimens reported is less than 10, those unreported died in some metamorphic stage. Such deaths indicate control, since the dead insects are not capable of reproducing.

[7] = 10% in acetone, 1 microliter topical, rating scale 0 (no effect) to 3 (maximum)
[8] = 10% in acetone, 1 microliter topical, rating scale 0 (no effect) to 4 (maximum)

Row | SMILES | number of specimens in rating 0 ([1]; 0.5%, rating scale 0-3) | number of specimens in rating 0 ([1]; 1%, rating scale 0-3) | number of specimens in rating 1 ([1]; 1%, rating scale 0-3) | number of specimens in rating 1 ([1]; 10%, rating scale 0-3) | number of specimens in rating 2 ([1]; 10%, rating scale 0-3) | number of specimens in rating 3 ([1]; 10%, rating scale 0-3) | number of specimens in rating 3 ([3]; 0.5%) | number of specimens in rating 3 ([3]; 1%) | number of specimens in rating 3 ([3]; 10%) | number in rating 0 (normal adult) ([5]; 0.5%, scale 0-2) | number in rating 2 (no evidence of emergence) ([5]; 0.5%, scale 0-2) | number in rating 0 (normal adult) ([5]; 1%, scale 0-2) | number in rating 2 (no evidence of emergence) ([5]; 1%, scale 0-2) | number in rating 2 (no evidence of emergence) ([5]; 10%, scale 0-2) | number of specimens in rating 0 ([6]; 0.5%, rating scale 0-3) | number of specimens in rating 0 ([6]; 1%, rating scale 0-3) | number of specimens in rating 0 [6, 7] | number of specimens in rating 0 [1, 7] | number of specimens in rating 0 ([4]; 0.5%, rating scale 0-4) | number of specimens in rating 0 ([4]; 1%, rating scale 0-4) | further results
1 | CC(C)(Cl)CCCC(C)(Cl)CCCc1ccc2c(c1)OCO2 (stereo not drawn) [2,6-dichloro-2,6-dimethyl-9-(3,4-methylenedioxyphenyl)nonane] | 8 specimens | 5 specimens | 3 specimens | 1 specimens | 4 specimens | 5 specimens | 8 specimens | 10 specimens | 5 specimens | 2 | 8 | 1 | 9 | 10 | 10 specimens | 10 specimens | 10 specimens |  |  |  | number of specimens in rating 1 ([1]; 0.5%, rating scale 0-3): 2 specimens; number of specimens in rating 2 ([1]; 1%, rating scale 0-3): 2 specimens; percent adult emergence, Cup 1 ([2]; 0.1 ppm in diet): 100%; percent adult emergence, Cup 2 ([2]; 0.1 ppm in diet): 100%; percent adult emergence, Cup 3 ([2]; 0.1 ppm in diet): 100%; percent adult emergence, Cup 1 ([2]; 1 ppm in diet): 100%; percent adult emergence, Cup 2 ([2]; 1 ppm in diet): 100%; percent adult emergence, Cup 3 ([2]; 1 ppm in diet): 100%; percent adult emergence, Cup 1 ([2]; 10 ppm in diet): 100%; percent adult emergence, Cup 2 ([2]; 10 ppm in diet): 90%; percent adult emergence, Cup 3 ([2]; 10 ppm in diet): 90%; control ([2]; 100 ppm): 100%; percent adult emergence, Cup 1 ([2]; 100 ppm in diet): 0%; percent adult emergence, Cup 2 ([2]; 100 ppm in diet): 0%; percent adult emergence, Cup 3 ([2]; 100 ppm in diet): 0%; number of specimens in rating 1 ([4]; 0.5%, rating scale 0-4): 2 specimens; number of specimens in rating 2 ([4]; 0.5%, rating scale 0-4): 8 specimens; number of specimens in rating 2 ([4]; 1%, rating scale 0-4): 10 specimens; number of specimens in rating 2 ([4]; 10%, rating scale 0-4): 1 specimens; number of specimens in rating 3 ([4]; 10%, rating scale 0-4): 9 specimens
2 | CC(C)=CCC/C(C)=C/CCc1ccc(Cl)c(Cl)c1 [trans-2,6-dimethyl-9-(3,4-dichlorophenyl)-2,6-nonadiene] | 10 specimens | 10 specimens |  | 1 specimens | 1 specimens | 2 specimens | 10 specimens | 10 specimens | 10 specimens |  |  |  |  |  | 10 specimens | 10 specimens | 10 specimens | 6 specimens | 10 specimens | 10 specimens | number of specimens in rating 0 [4, 8]: 10 specimens; number in rating 0 (normal adult) ([5]; 0.5%, scale 0-3): 3; number in rating 2 (partially emerged adult) ([5]; 0.5%, scale 0-3): 1; number in rating 3 (no evidence of emergence) ([5]; 0.5%, scale 0-3): 6; number in rating 0 (normal adult) ([5]; 1%, scale 0-3): 8; number in rating 3 (no evidence of emergence) ([5]; 1%, scale 0-3): 2; number in rating 0 (normal adult) ([5]; 10%, scale 0-3): 5; number in rating 3 (no evidence of emergence) ([5]; 10%, scale 0-3): 5
3 | CC(C)=CCC/C(C)=C/CCc1ccc(Cl)cc1 [trans-2,6-dimethyl-9-(4-chlorophenyl)-2,6-nonadiene] |  |  |  |  |  | 10 specimens | 10 specimens | 10 specimens | 10 specimens | 4 | 6 | 3 | 4 | 5 | 10 specimens | 9 specimens | 6 specimens |  | 10 specimens | 4 specimens | number of specimens in rating 3 ([1]; 0.5%, rating scale 0-3): 10 specimens; number of specimens in rating 3 ([1]; 1%, rating scale 0-3): 10 specimens; number of specimens in rating 1 ([4]; 1%, rating scale 0-4): 3 specimens; number of specimens in rating 3 ([4]; 1%, rating scale 0-4): 3 specimens; number of specimens in rating 4 ([4]; 10%, rating scale 0-4): 10 specimens; number in rating 1 (partially emerged adult) ([5]; 1%, scale 0-2): 3; number in rating 0 (normal adult) ([5]; 10%, scale 0-2): 3; number in rating 1 (partially emerged adult) ([5]; 10%, scale 0-2): 1; number of specimens in rating 2 ([6]; 1%, rating scale 0-3): 1 specimens; number of specimens in rating 1 ([6]; 10%, rating scale 0-3): 1 specimens; number of specimens in rating 2 ([6]; 10%, rating scale 0-3): 3 specimens
4 | CC(C)=CCC/C(C)=C\CCc1ccc(Cl)cc1 [cis-9-(4-chlorophenyl)-2,6-dimethyl-2,6-nonadiene] |  |  |  |  |  |  |  |  |  | 3 | 3 | 2 | 4 | 6 |  |  |  |  |  |  | number in rating 1 (partially emerged adult) ([5]; 0.5%, scale 0-2): 3; number in rating 1 (partially emerged adult) ([5]; 1%, scale 0-2): 2; number in rating 1 (partially emerged adult) ([5]; 10%, scale 0-2): 2
5 | CC(C)=CCC/C(C)=C/CCc1c(Cl)cccc1Cl [trans-9-(2,6-DICHLOROPHENYL)-2,6-DIMETHYL-2,6-NONADIENE] | 10 specimens | 9 specimens | 1 specimens | 2 specimens |  |  |  |  | 10 specimens |  |  |  |  |  | 10 specimens | 10 specimens | 10 specimens | 8 specimens | 10 specimens | 10 specimens | number of specimens in rating 0 ([3]; 0.5%): 10 specimens; number of specimens in rating 0 ([3]; 1%): 8 specimens; number of specimens in rating 0 [4, 8]: 9 specimens
6 | CC(=CCCc1ccc2c(c1)OCO2)CCC1OC1(C)C (stereo not drawn) [9-(3,4-methylenedioxyphenyl)-2,6-dimethyl-2,3-epoxy-6-nonene] |  |  |  |  |  |  |  | 2 specimens | 7 specimens |  |  |  | 10 | 10 |  |  |  |  |  | 1 specimens | number of specimens in rating 1 ([3]; 0.5%): 2 specimens; number of specimens in rating 2 ([3]; 0.5%): 4 specimens; number of specimens in rating 1 ([3]; 1%): 5 specimens; number of specimens in rating 4 ([4]; 0.5%, rating scale 0-4): 10 specimens; number of specimens in rating 4 ([4]; 1%, rating scale 0-4): 9 specimens; number of specimens in rating 4 ([4]; 10%, rating scale 0-4): 10 specimens

Source: US3962282A, “Juvenile hormone mimics” (priority 1974, dated 1976)
